The first test concerns the target T1, CCR1 (Homo sapiens, UniProt P32246).
T1 construct: host or cells: THP-1 cells or freshly isolated monocytes
T1 sequence (P32246 1-355): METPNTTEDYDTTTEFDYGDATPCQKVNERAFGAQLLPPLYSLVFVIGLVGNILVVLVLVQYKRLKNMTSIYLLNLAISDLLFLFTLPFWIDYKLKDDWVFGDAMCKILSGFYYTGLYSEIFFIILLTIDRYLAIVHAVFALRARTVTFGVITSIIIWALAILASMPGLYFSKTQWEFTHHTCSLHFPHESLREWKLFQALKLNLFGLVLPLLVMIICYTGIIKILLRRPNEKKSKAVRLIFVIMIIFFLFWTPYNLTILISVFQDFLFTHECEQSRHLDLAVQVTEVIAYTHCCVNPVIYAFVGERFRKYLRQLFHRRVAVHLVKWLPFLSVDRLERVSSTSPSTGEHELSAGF
The test is described as follows: chemotaxis assay (THP-1 cells or monocytes migrating to CCR1 chemokine ligands). The test is classed as cell-based. The settings on record: chemotaxis assay; compared with drawing 40. Here is the method: THP-1 cells were obtained from ATCC (TIB-202) and cultured as a suspension in RPMI-1640 medium supplemented with 2 mM L-glutamine, 1.5 g/L sodium bicarbonate, 4.5 g/L glucose, 10 mM HEPES, 1 mM sodium pyruvate, 0.05% 2-mercaptoethanol and 10% FBS. Cells were grown under 5% CO2/95% air, 100% humidity at 37° C. and subcultured twice weekly at 1:5 (cells were cultured at a density range of 2×10^5 to 2×10^6 cells/mL) and harvested at 1×10^6 cells/mL. THP-1 cells express CCR1 and can be used in CCR1 binding and functional assays.
One of the primary functions of chemokines is their ability to mediate the migration of chemokine receptor-expressing cells, such as white blood cells. To confirm that a compound of interest inhibited not only CCR1 specific binding and signaling (at least as determined by calcium mobilization assays), but also CCR1 mediated migration, a chemotaxis assay was employed. THP-1 myelomonocytic leukemia cells, which resemble monocytes, as wells as freshly isolated monocytes, were used as targets for chemoattraction by CCR1 chemokine ligands (i.e., MIP-1α, CCL15/leukotactin). Cells were place in the top compartment of a microwell migration chamber, 5 μm pore polycarbonate, polyvinylpyrrolidone-coated filters in 96-well chemotaxis chambers (Neuroprobe; Gaithersburg, Md.) using chemotaxis buffer (Hank's balanced salt solution (HBSS) and 1% FBS. CCR1 chemokine ligands (i.e., MIP-1α, CCL15/Leukotactin; R&D Systems; Minneapolis, Minn.) are used to evaluate compound mediated inhibition of CCR1 mediated migration. Other chemokines (i.e., SDF-1α; R&D Systems; Minneapolis, Minn.) are used as specificity controls. The lower chamber was loaded with 29 μl of chemokine (i.e., 0.1 nM CCL15/Leukotactin) and varying amounts of compound; the top chamber contained 100,000 THP-1 or monocyte cells in 20 μl. […] To ascertain a compound of interest's affinity for CCR1 as well as to confirm its ability to inhibit CCR1 mediated cell migration, inhibitory activity was titered over a 1×10^−10 to 1×10^−4 M range of compound concentrations in this chemotaxis assay. In this assay, the amount of compound was varied; while cell number and chemokine agonist concentrations were held constant. After the chemotaxis chambers were incubated 1-2 hours at 37° C., the responding cells in the lower chamber were quantified by labeling with the CyQuant assay (Molecular Probes), a fluorescent dye method that measures nucleic acid content, and by measuring with a Spectrafluor Plus (Tecan). The computer program Prism from GraphPad, Inc. (San Diego, Calif.) was used to calculate IC50 values. IC50 values are those compound concentrations required to inhibit the number of cells responding to a CCR1 agonist by 50%.
As to `COc1cc(N2CCN(C(=O)Cn3nc(-c4ncc[nH]4)c4c(N)ncnc43)[C@@H](C)C2)c(F)cc1Cl` [drawing 39], the “IC50 relative to comparator compound” value is recorded as “an order of magnitude lower”.

Staying with this test, now noted: versus imidazole-substituted pyrido[4,3-b]pyrazoles of related U.S. application Ser. No. 12/124,894.
Turning to `Nc1ncnc2c1c(-c1ncc[nH]1)nn2CC(=O)N1CCN(c2ccc(Cl)c(OC(F)(F)F)c2)CC1` [Compound 1.010], the “activity in direct comparisons relative to the related compounds tested” value is “at least an order of magnitude better”. Still for that read-out and setting: then `COc1cc(N2CCN(C(=O)Cn3nc(-c4ncc[nH]4)c4c(N)ncnc43)[C@@H](C)C2)ccc1Cl` [Compound 1.004], with “at least an order of magnitude better”; and `C[C@H]1CN(c2ccc(Cl)cc2F)CCN1C(=O)Cn1nc(-c2ncc[nH]2)c2c(N)ncnc21` [Compound 1.003], with “at least an order of magnitude better”. Same read-out and setting: then `COc1cc(N2CCN(C(=O)Cn3nc(-c4ncc[nH]4)c4c(N)ncnc43)CC2)ccc1Cl` [Compound 1.001], with “at least an order of magnitude better”. Same read-out and setting: then `COc1cc(N2CCN(C(=O)Cn3nc(-c4ncc[nH]4)c4c(N)ncnc43)[C@@H](C)C2)c(F)cc1Cl` [Compound 1.006], with “at least an order of magnitude better”; and `CCOc1cc(N2CCN(C(=O)Cn3nc(-c4ncc[nH]4)c4c(N)ncnc43)[C@@H](C)C2)ccc1Cl` [Compound 1.011], with “at least an order of magnitude better”.

Take `CCOc1cc(N2CCN(C(=O)Cn3nc(-c4ncc[nH]4)c4c(N)ncnc43)CC2)ccc1Cl` [Compound 1.007]: the “activity in direct comparisons relative to the related compounds tested” value is “at least an order of magnitude better”.

Values taken from patent US8946240B2, “4-amino-3-(imidazolyl)-pyrazolo[3,4-D]pyrimidines” (ChemoCentryx, Inc., priority 2008, dated 2015).
